# Measured values: ChEMBL document CHEMBL1136210, “Bone-targeted pyrido[2,3-d]pyrimidin-7-ones: potent inhibitors of Src tyrosine kinase as novel antiresorptive agents” (Bioorg Med Chem Lett, 2003)
# pIC50: −log10 of the molar value.
# How the values were obtained:
# [1] = target: Proto-oncogene tyrosine-protein kinase Src (Homo sapiens, UniProt P12931); assay: Inhibition of Src protein tyrosine kinase
# [2] = Compound was tested for toxicity by the presence of tartrate resistant acid phosphatase (TRAP)-positive cell; Normal; assay type: functional
# Oryctolagus cuniculus = species on record: Oryctolagus cuniculus; assay: Inhibition of rabbit-osteoclast mediated resorption of dentine slices
# Proto-oncogene tyrosine-protein kinase Src, sequence (P12931 2-536 limits assumed): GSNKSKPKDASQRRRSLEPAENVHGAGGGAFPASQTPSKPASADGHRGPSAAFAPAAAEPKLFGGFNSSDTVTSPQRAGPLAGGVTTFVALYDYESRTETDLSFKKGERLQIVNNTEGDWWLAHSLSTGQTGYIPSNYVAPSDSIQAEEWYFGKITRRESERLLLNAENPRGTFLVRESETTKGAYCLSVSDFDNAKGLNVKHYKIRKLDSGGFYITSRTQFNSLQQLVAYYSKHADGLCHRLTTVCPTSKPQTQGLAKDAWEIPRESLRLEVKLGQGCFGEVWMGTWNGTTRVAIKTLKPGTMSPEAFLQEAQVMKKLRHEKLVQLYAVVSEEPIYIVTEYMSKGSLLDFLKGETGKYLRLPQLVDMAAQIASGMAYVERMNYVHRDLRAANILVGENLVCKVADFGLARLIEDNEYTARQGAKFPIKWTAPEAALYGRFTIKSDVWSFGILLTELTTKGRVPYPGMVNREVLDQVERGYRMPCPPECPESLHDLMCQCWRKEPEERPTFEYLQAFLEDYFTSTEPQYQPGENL
pIC50 [1],pIC50 (Oryctolagus cuniculus),SMILES,TRAP staining [2]
7.80,,Cn1c(=O)c(-c2c(Cl)cccc2Cl)cc2cnc(Nc3ccccc3)nc21,
,6.10,CN(C)CCCn1c(=O)c(-c2c(Cl)cccc2Cl)cc2cnc(Nc3ccc(P(=O)(O)CP(=O)(O)O)cc3)nc21,Not toxic
,5.40,Cn1c(=O)c(-c2c(Cl)cccc2Cl)cc2cnc(Nc3cccc(P(=O)(O)CP(=O)(O)O)c3)nc21,Not toxic
,5.52,Cn1c(=O)c(-c2c(Cl)cccc2Cl)cc2cnc(Nc3ccc(P(=O)(O)CP(=O)(O)O)cc3)nc21,Not toxic
